Test results published in PMC8409943, “Study on mechanism of low bioavailability of black tea theaflavins by using Caco-2 cell monolayer” (Drug Delivery, 2021).
Where two headings read alike, the source gives them in different places.

What was measured:
Caco-2 cells = assay: Cytotoxicity study by CCK-8 method; assay type: cell-based, Human; conditions: 24 h
Description: Standard stock solutions (1000 μM) of each theaflavin were prepared in 0.1% dimethyl sulfoxide (DMSO) in deionized water, and diluted with fresh DMEM to 100, 200, 300, 400, and 500 µmol/L respectively. Each inhibitor was prepared as instructions. The cytotoxicity of theaflavins and four inhibitors of multidrug resistant associated proteins to Caco-2 cells was examined by CCK-8 method (Song et al., [2014]). Briefly, Caco-2 cells were inoculated onto 96-well microtiter plates at a density of 1 × 10^4 cells per well. After incubation at 37 °C for 24 h, cells were incubated for another 24 h with different concentrations of theaflavins, followed by adding 10 μL CCK-8 solution and 1 h incubation at 37 °C. The absorbance (OD) value was determined at 450 nm using a microplate reader (ELX-800, Bio-Tek Instruments Inc., Winooski, USA). Four inhibitors were used in this study: Vep, inhibitor of P-gp; CsA, inhibitor and substrate of P-gp; MK-571, inhibitor of MRP1, MRP2 and MRP3; FTC, inhibitor of BCRP (Silbermann et al., [1989]; König et al., [1999]; Renes et al., [1999]; Ali et al., [2017]). The cytotoxicity of Vep, CsA, MK-571 or FTC was also determined by CCK-8 assay. […] To determine the effects of inhibitors on the cytotoxicity of theaflavins, cells were incubated with both different theaflavin monomers (100, 200, 300, 400, and 500 μM) and different inhibitors. IC50, the half inhibitory concentration, was calculated from the cell viability. The cell viability was calculated by the following equation: (1) Cell viability (%)=(ODsample− ODblank)/(ODcontrol− ODblank)×100% where ODsample is the absorbance value of cell + sample + complete medium; ODblank, the absorbance value of complete medium; ODcontrol, the absorbance value of cell + complete medium.

[1] = Transepithelial transport of theaflavins across Caco-2 cell monolayers, with or without efflux transporter inhibitors; assay type: in vitro ADME, Human; conditions: human; for recovery at 2 h, 200 μM: Caco-2, Caco-2 monolayers, after 2 h incubation; for efflux ratio at 2 h, 200 μM / Papp A→B at 2 h, 200 μM / Papp B→A at 2 h, 200 μM: 2 h incubation
Description: (§1) For transport studies, Caco-2 cells were seeded at a density of 3 × 10^5 cells per well in Transwell® inserts (polycarbonate membrane, 24 mm i.d., 0.4 μm pore size, Corning Costar Corp., NY, USA) in 6-well plates (Zhang et al., [2004]). […] The inserts were washed twice with HBSS buffer and equilibrated at 37 °C for 30 min. Standard stock solutions of each theaflavin were diluted to 200 μM with HBSS. For absorptive transport, theaflavins in 1.5 mL HBSS was added into the AP side and 2.6 mL HBSS was added into the BL side of all inserts. For secretory transport, 1.5 mL HBSS and 2.6 mL theaflavins in HBSS were added into AP side and BL side, respectively. Samples were collected from the receiving chamber after 0.5, 1, 2, 3, or 4 h incubation and then were lyophilized at −110 °C in a CoolSafe freeze dryer (LaboGene ApS, Bjarkesvej, Denmark) for HPLC analysis. The recovery rate of theaflavins in the transport was calculated from the above Equation (2).
(§2) Prior to transport inhibition experiment, cells were preincubated for 30 min with 100 μM Vep, 100 μM CsA, 100 μM MK-571, or 10 μM FTC in both sides (Vaidyanathan & Walle, [2001]; Wang et al., [2008]). Then, the absorptive and secretory experiments were performed in the presence of inhibitors as described above. Samples were collected from the receiving chamber after 2 h incubation and then were lyophilized at −110 °C for HPLC analysis.
(§3) The apparent permeability coefficient (Papp, cm/s) was calculated as follows: (3) Papp= dQ/dt×V/(A×C0) where dQ/dt is the variation in concentration on the receiving side over time (μM/s); V, the volume of the solution collected from the receiving chamber (cm^3); A, the area of the membrane (4.67 cm^2); C0, the initial concentration of theaflavins in the donor chamber (μM).
(§4) The efflux ratio was calculated as follows: (4) Efflux ratio= Papp(BL−AP)/Papp(AP−BL) where Papp, apparent permeability coefficient; AP-BL, apical to basolateral transport; BL-AP, basolateral to apical transport.

Caco-2 cell monolayers = assay: as above; assay type: in vitro ADME, Human; conditions: absorptive transport, with verapamil vs control, 2 h
Description: as §1, §2, §3, §4

MRP1 = assay: Western blot, protein level of MRP1; assay type: cell-based, Human; conditions: Caco-2 cells, 200 μM, 2 h, normalized to β-actin, vs control
Description: (§5) Cell lysates were prepared with RIPA lysis buffer. […] Cell protein (50 μg) was loaded onto SDS polyacrylamide gel (5% stacking gel; 8% separating gel) and separated by electrophoresis for 1.5 h at 20 mA. Next, the separated proteins were transferred onto the PVDF membrane in ice bath for 1.5 h at 120 mA, followed by blocking the membrane with 5% nonfat milk in Tris-buffered saline containing 0.1% Tween-20 (TBST) for 1 h at room temperature. After blocking, the blots were incubated overnight at 4 °C with the primary antibody of P-gp, MRP1, MRP2, MRP3, BCRP (1:200) or β-actin (1:40,000), followed by washing with TBST and incubation for 1 h at room temperature with HRP-conjugated goat anti-rabbit (1:3,000). Immunoreactive proteins were visualized by the ECL detection system, band intensity was quantified by Image Lab (Bio-Rad, CA, USA), and the protein contents were normalized to β-actin.

BCRP = assay: Western blot, protein level of BCRP; assay type: cell-based, Human; conditions: Caco-2 cells, 200 μM, 2 h, normalized to β-actin, vs control
Description: as §5

Caco-2 monolayers = assay: HPLC-MS/MS identification of metabolites in the absorptive transport of Caco-2 monolayers; assay type: in vitro ADME, Human; conditions: 200 µM, 2 h
Description: TF3G, TF3’G and TFDG were dissolved in DMSO (≤0.5%), and then, diluted with HBSS. Caco-2 cells were incubated with 200 µM TF3G, TF3’G and TFDG at 37 °C for 2 h. Samples collected from both AP side and BL side were measured by HPLC with MS detection, and the metabolites were determined in terms of the standard TF, TF3G, TF3’G, TFDG, and gallic acid (Table S2).

[2] = Stability (recovery rate) of theaflavins in HBSS and DMEM in the absence of cells; conditions: 2 h
Description: Standard stock solutions of each theaflavin were diluted with HBSS and DMEM respectively, obtaining final test solutions of 200 μM. The recovery rate of theaflavins in HBSS and in DMEM, in the absence of cells, was analyzed by HPLC after incubation at 37 °C for 0.5, 1, 2, 3, 4, 8, 12, and 24 hours, respectively. The recovery rate was used to measure the stability and calculated as follows: (2) Recovery rate=Ct/C0× 100% where Ct is the final concentration at different incubation time (μM); C0, the initial concentration (μM).
Theaflavins were characterized by high performance liquid chromatography (HPLC, Agilent 1100VL, Agilent Technologies Inc., CA, USA). Briefly, samples were extracted with 70% methanol, centrifuged at 685 × g for 10 min, and filtered through a 0.45 μm membrane (Nylon 66). The separation was performed by an ODS reversed-phase column (4.6 mm i.d.×250 mm, SB-C18, Agilent Technologies Inc., CA, USA) at a flow rate of 0.7 mL/min. Chromatographic conditions were slightly modified according to China National Standard (GB/T 30483-2013, GAQSIQ, P. R. China, 2013). Samples were eluted with a gradient of solvent A (100 mL water with 9 mL acetonitrile and 2 mL acetic acid) and B (100 mL acetonitrile with 17.8 mL water and 2 mL acetic acid) as follows: 0–5 min, 95% A; 5–10 min, 90% A; 10–20 min, 70% A; 20–25 min, 65% A; 25–30 min, 70% A; 30–35 min, 100% A. Theaflavins were detected using an ultraviolet detector at a wavelength of 278 nm.

O=C(O[C@@H]1Cc2c(O)cc(O)cc2O[C@@H]1c1cc(O)c(O)c2c(=O)c(O)cc([C@H]3Oc4cc(O)cc(O)c4C[C@H]3O)cc12)c1cc(O)c(O)c(O)c1 [TF3’G, theaflavin-3’-gallate]
IC50 (Caco-2 cells; + CsA): 575 ± 84.3 µM | IC50 (Caco-2 cells; + FTC): 432 ± 30.7 µM | IC50 (Caco-2 cells; + MK-571): 424 ± 35 µM | IC50 (Caco-2 cells; + VEP): 467 ± 53.3 µM | IC50 (Caco-2 cells; Homo sapiens, Ctrl (no inhibitor)): 521 ± 31.9 µM | recovery at 2 h, 200 μM ([1]; apical to basolateral, read-out: recovery of theaflavins in absorptive transport): 31.8% | recovery at 2 h, 200 μM ([1]; basolateral to apical, read-out: recovery of theaflavins in secretory transport): 31.6% | efflux ratio at 2 h, 200 μM ([1]; Caco-2, Papp(BL−AP)/Papp(AP−BL), Ctrl (no inhibitor)): 1.62 ± 0.15 | Papp A→B at 2 h, 200 μM ([1]; Caco-2, absorptive transport, 200 μM theaflavin in HBSS, Ctrl (no inhibitor)): 0.044 ± 0.003 ×10⁻⁶ cm/s | Papp B→A at 2 h, 200 μM ([1]; Caco-2, secretory transport, 200 μM theaflavin in HBSS, Ctrl (no inhibitor)): 0.072 ± 0.003 ×10⁻⁶ cm/s | efflux ratio at 2 h, 200 μM ([1]; Caco-2, with 10 μM FTC (BCRP inhibitor), + 10 μM FTC (BCRP inhibitor)): 1.26 ± 0.11 | Papp A→B at 2 h, 200 μM ([1]; Caco-2, with 10 μM FTC (BCRP inhibitor), absorptive transport, + 10 μM FTC (BCRP inhibitor)): 0.054 ± 0.003 ×10⁻⁶ cm/s | Papp B→A at 2 h, 200 μM ([1]; Caco-2, with 10 μM FTC (BCRP inhibitor), secretory transport, + 10 μM FTC (BCRP inhibitor)): 0.067 ± 0.002 ×10⁻⁶ cm/s | efflux ratio at 2 h, 200 μM ([1]; Caco-2, with 100 μM CsA (P-gp inhibitor and substrate), + 100 μM CsA (P-gp inhibitor and substrate)): 1.55 ± 0.14 | Papp A→B at 2 h, 200 μM ([1]; Caco-2, with 100 μM CsA (P-gp inhibitor and substrate), absorptive transport, + 100 μM CsA (P-gp inhibitor and substrate)): 0.054 ± 0.003 ×10⁻⁶ cm/s | Papp B→A at 2 h, 200 μM ([1]; Caco-2, with 100 μM CsA (P-gp inhibitor and substrate), secretory transport, + 100 μM CsA (P-gp inhibitor and substrate)): 0.084 ± 0.003 ×10⁻⁶ cm/s | efflux ratio at 2 h, 200 μM ([1]; Caco-2, with 100 μM Vep (P-gp inhibitor), + 100 μM Vep (P-gp inhibitor)): 1.08 ± 0.1 | Papp A→B at 2 h, 200 μM ([1]; Caco-2, with 100 μM Vep (P-gp inhibitor), absorptive transport, + 100 μM Vep (P-gp inhibitor)): 0.055 ± 0.003 ×10⁻⁶ cm/s | Papp B→A at 2 h, 200 μM ([1]; Caco-2, with 100 μM Vep (P-gp inhibitor), secretory transport, + 100 μM Vep (P-gp inhibitor)): 0.059 ± 0.002 ×10⁻⁶ cm/s | fold increase in the influx (Caco-2 cell monolayers): 1.24 fold | increase of protein level of MRP1 (MRP1): increased | increase of protein level of BCRP (BCRP): increased | conjugated metabolites (glucuronidated, sulfated and methylated) (Caco-2 monolayers; AP side or BL side of Caco-2 monolayers): not detected | metabolites identified (Caco-2 monolayers; absorptive transport, AP side and BL side): GA (peak M3, Figure 5(G,H)) and TF | degraded due to the structural instability [2]: 22.1%
